From patent publication US20230192705A1, “SHP2 INHIBITORS, COMPOSITIONS AND USES THEREOF” (Betta Pharmaceuticals Co., Ltd, priority 2020, published 2023) come the findings set out here.

Experiment [1] addresses T1, hERG channel (Homo sapiens, UniProt Q12809).
T1 construct: expressed in transfected cells; host or cells: HEK-293
Briefly: Patch clamp assay to test the effect of compound on hERG channel. The experiment is classed as cell-based. Conditions: manual patch clamp, HEK 293 cells expressed with hERG, concentration for half maximum effect. Here is the method:
10 mL extracellular solution was used to dilute the stock solution, making the final concentrations of test compound were 0.3 μM, 1 μM, 3 μM, 10 μM and 30 μM.
The solubility of compound was visually observed.
The cell line was derived from HEK-293 cells, and grown in a humidified environment at 37° C. under 5% CO2, using the media formulation below. The cell line should not be allowed to exceed 80% confluence within the culture vessel to prevent contact inhibition causing senescence and should thus be passaged every 3/4 days using a seeding density of 2*10^6 cells per T175 flask. Cell lines were be pre-washed with phosphate buffered saline before harvesting with Trypsin/EDTA and seeded into new flasks.
HEK 293 cells expressed with hERG were plated on cover slips overnight with the cell density less than 50% of confluence. Cells used for electrophysiological study were transferred to a small cell bath (1 mL) mounted on the stage of an inverted microscope (Diaphot, Nikon) and were perfused with external solution containing (in mM) 130 NaCl, 4 KCl, 1.8 CaCl2), 1 MgCl2, 10 glucose and 10 HEPES (pH 7.4 with NaOH), the perfusion rate was 4 mL/min. The internal pipette solution contained (in mM) 130 KCl, 1 MgCl2, 5 ethylene glycol-bis(baminoethyl ether)-N,N,N8,N8-tetraacetic acid, 5 MgATP and 10 HEPES (pH 7.2 with KOH). An HEKA EPC-10 patch-clamp amplifier and PATCHMASTER acquisition program were used to record membrane currents (HEKA Instruments IncD-67466 Lambrecht/Pfalz Germany). All experiments were performed at room temperature (22-23° C.).
The Model P-97 micropipette puller (Sutter Instrument Company, One Digital Drive, Novato, Calif. 94949) was used to pull glass patch pipettes (BF150-86-10) in all experiments.
The experiments were initiated with a 2 min vehicle control period after forming a whole cell configuration with less 5% run-down in 5 min and the tail currents in the report were at least greater than 500 pA. After a 2 min vehicle control period, the perfusion was switched to the reservoir containing the compound at the first concentration. The same procedure was repeated 3-5 times so that each cell was exposed to 4-6 escalating concentrations of compound. The time courses for block and unblock of hERG during compounds exposure and washout were continuously recorded.
The peak tail of hERG was generated by applying 2-sec depolarizing every 12 sec steps from a holding potential of −80 mV, the peak of tail currents were measured at a 5-sec repolarizing pulse at −50 mV.
hERG peak tail currents were directly measured from a 5 sec repolarization pulse at −50 mV. The fraction of control current was plotted as a function of logarithm of compound concentration. To determine the concentration of compound for halfmaximum effect, the concentration-response curve was fitted by Hill equation as shown follow.
where Y is the observed value, Bottom is the lowest observed value (0), Top is the highest observed value (1), and the Hillcoefficient gives the largest absolute value of the slope of the curve.
Data were analyzed by a combination of PATCHMASTER ((HEKA Instruments IncD-67466 Lambrecht/Pfalz Germany) and Origin (OriginLab Corporation, Northampton, Mass.) software programs.
Data were expressed as mean±SEM.

For experiment [2], the target named is T2, SHP2 (Homo sapiens, UniProt Q06124).
T2 sequence (Q06124 1-593): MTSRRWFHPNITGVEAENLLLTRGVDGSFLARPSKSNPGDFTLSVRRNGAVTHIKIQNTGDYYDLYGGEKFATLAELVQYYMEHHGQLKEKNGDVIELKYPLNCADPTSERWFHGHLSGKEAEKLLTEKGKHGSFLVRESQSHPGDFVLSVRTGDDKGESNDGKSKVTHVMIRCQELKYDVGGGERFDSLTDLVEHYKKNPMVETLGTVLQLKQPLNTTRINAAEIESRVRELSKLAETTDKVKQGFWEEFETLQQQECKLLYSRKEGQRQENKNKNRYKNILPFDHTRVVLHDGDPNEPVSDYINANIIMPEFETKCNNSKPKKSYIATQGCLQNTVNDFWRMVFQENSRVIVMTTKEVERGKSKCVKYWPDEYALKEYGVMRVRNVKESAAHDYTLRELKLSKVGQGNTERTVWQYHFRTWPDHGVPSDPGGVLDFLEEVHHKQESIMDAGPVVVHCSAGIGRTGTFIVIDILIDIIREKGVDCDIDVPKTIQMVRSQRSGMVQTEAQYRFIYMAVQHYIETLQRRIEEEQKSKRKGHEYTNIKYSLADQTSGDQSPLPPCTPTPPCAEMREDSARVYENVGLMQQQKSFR
The experiment in a line: SHP2 allosteric inhibitor enzyme activity assay (DiFMUP fluorescence). The format is biochemical. The procedure, abridged:
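SHP2 activated by 0.5 μM IRS1_pY1172(dPEG8)pY1222 peptide, 0.2 ng enzyme per well, 1 h at room temperature with compound (1 μM top, 3-fold series), then DiFMUP substrate 1 h. Buffer: 60 mM HEPES, 75 mM NaCl, 75 mM KCl, 0.05% BRIJ-35, 1 mM EDTA, 5 mM DTT. Fluorescence ex 340/em 450 nm; IC50 by variable-slope fit.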

Experiment [3] relates to lung cancer NCI-H358 cell. The experiment in a line: Cell proliferation assay (CellTiter-Glo), NCI-H358. As to conditions: Homo sapiens, NCI-H358, 96 hrs, CTG, read-out: Compound on NCI-H358 cell IC50. The format is cell-based. Here is the method:
(§1) The effects of the compounds on the proliferation of leukemia MV-4-11 cell and lung cancer NCI-H358 cell were evaluated by in vitro cell test. The assay used in this study was the CELL TITER-GLO (CTG) luminescence assay, which can detect the number of living cells by quantitative determination of ATP. Because ATP is involved in a variety of enzymatic reactions in vivo and is an indicator of the metabolism of living cells, its content can directly reflects the number and state of cells. During the experiment, Celltiter-Glo™ reagent was added to the cell culture medium to measure the luminescence value. The luminescence value was proportional to the amount of ATP, which in turn was positively correlated with the number of living cells. Therefore, ATP content can be used to detect cell viability.
A bottle of NCI-H358 cells in logarithmic growth phase was taken, the cells were digested and resuspend, counted, and then the cell density was adjusted. After that, the cells were inoculated into a 96-well Ultra-Low Attachment Microplate (Corning #3474), 2000 cells were inoculated in each well, and the well plate was placed in an incubator at 37° C. and 5% CO2, and the compounds of the invention were added for conducting.
(§2) An appropriate amount of the compound of the invention was taken for cell treatment, and the final concentration of the compound from high to low was 1000 nM, 333.3 nM, 111.1 nM, 37.04 nM, 12.35 nM, 4.115 nM, 1.372 nm, 0.4572 nM, 0.1524 nM, 0 nM, respectively. The orifice plate was cultured in an incubator at 37° C. and 5% CO2. Only adding medium without adding cell hole was set as blank group. Compound concentration of 0 nM group was zero control group.
NCI-H358 cells were cultured for 96 hrs, then 50 μL CellTiter-Glo® Luminescent cell viability assay solution was added to each well, and the cells were gently shaken for 2 mins, and incubated at room temperature for 10 mins. The cell reaction system was transferred to 96-well Microplate (Corning #3917). The detection values of each well were read on the multi-functional microplate reader.
(§3) The inhibition rate is calculated according to the luminous value reading,
(§4) Inhibition rate %=(1−(administration group value−blank group value)/(control group value−blank group value)*100
(§5) The log (inhibitor) vs. response variable slope of GraphPad Prism was used to fit the dose-response curve and calculate the IC50 of compounds inhibiting cell proliferation.

Experiment [4] deals with leukemia MV-4-11 cell. The experiment in a line: Cell proliferation assay (CellTiter-Glo), MV-4-11. Conditions: Homo sapiens, MV4-11, MV-4-11, 120 hrs, CTG, read-out: Compound on MV-4-11 cell IC50. The experiment is classed as cell-based. As for the experimental part: as §1
A bottle of MV-4-11 cells in logarithmic growth phase was taken, the cells were collected, centrifuged, resuspend, counted, and then inoculated into 96-well Microplate (Corning #3917), with 4000 cells inoculated in each well. The plates were placed in an incubator at 37° C. and 5% CO2 for 24 hrs culture, and the compounds of the invention were added for conducting.
as §2
After cultured for 120 hrs, MV-4-11 cells were added with 50 μL CellTiter-Glo® Luminescent cell viability assay solution in each well, gently shaken for 2 mins, and incubated at room temperature for 10 mins. The detection values of each well were read on the multi-functional microplate reader.
as §3, §4, §5

Like-named read-outs stand apart in the source and are kept apart here.

T1 sequence (Q12809 whole entry): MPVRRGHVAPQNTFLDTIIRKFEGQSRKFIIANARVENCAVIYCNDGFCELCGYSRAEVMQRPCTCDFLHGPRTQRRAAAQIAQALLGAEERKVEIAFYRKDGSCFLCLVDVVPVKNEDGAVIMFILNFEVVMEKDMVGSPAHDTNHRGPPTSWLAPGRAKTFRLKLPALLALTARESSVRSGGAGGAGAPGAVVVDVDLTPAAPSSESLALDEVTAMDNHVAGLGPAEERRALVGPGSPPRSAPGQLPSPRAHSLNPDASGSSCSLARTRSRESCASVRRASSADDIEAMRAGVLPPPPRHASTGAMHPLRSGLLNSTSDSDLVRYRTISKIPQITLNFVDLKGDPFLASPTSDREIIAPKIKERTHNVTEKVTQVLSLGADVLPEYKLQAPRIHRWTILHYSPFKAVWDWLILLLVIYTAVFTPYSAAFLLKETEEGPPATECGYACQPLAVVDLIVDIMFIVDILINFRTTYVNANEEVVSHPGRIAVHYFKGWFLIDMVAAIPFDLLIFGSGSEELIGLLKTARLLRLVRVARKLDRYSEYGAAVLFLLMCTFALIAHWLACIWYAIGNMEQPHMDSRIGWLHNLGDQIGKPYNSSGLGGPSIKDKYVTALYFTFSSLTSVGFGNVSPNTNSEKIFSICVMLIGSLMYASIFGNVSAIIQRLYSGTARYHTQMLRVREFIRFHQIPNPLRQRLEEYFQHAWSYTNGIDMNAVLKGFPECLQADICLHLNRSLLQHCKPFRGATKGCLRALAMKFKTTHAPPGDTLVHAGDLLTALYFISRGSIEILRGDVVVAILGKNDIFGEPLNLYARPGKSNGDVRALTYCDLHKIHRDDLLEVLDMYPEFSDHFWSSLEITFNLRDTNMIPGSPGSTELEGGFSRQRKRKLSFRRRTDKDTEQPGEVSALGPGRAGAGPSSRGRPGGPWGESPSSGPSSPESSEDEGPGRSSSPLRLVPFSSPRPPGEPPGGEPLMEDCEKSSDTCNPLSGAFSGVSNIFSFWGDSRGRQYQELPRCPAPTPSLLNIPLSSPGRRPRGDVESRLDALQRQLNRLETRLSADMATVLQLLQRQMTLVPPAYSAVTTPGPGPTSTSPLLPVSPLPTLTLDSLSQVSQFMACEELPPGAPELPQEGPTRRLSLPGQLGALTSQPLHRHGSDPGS

On to `N[C@@H]1c2ccccc2CC12CCN(c1nc3[nH]nc(C4(n5cccn5)CC4)c3c(=O)[nH]1)CC2` [Example 255, (S)-3-(1-(1H-pyrazol-1-yl)cyclopropyl)-6-(1-amino-1,3-dihydrospiro[indene-2,4′-piperidin]-1′-yl)-1,5-dihydro-4H-pyrazolo[3,4-d]pyrimidin-4-one], for which the IC50 in experiment [1] was > 30 µM.

On to `CCC(c1ccccc1)c1n[nH]c2nc(N3CCC4(CC3)Cc3ccccc3[C@H]4N)[nH]c(=O)c12` (stereo partly drawn) [Example 217, 6-((S)-1-amino-1,3-dihydrospiro[indene-2,4′-piperidin]-1′-yl)-3-(1-phenylpropyl)-1,5-dihydro-4H-pyrazolo[3,4-d]pyrimidin-4-one], for which the values for the IC50 in experiment [1] and in experiment [2] (class symbols) were 0.54 µM and ≤ 20 nM, respectively.

On to `N[C@@H]1c2ccccc2CC12CCN(c1nc3[nH]nc(C4(c5ccccc5)CCC4)c3c(=O)[nH]1)CC2` [Example 90], for which the results for the half-inhibitory concentration (IC50) in experiment [1] and in experiment [2] (class symbols) were 4.95 µM and ≤ 20 nM, respectively.

For the molecule `N[C@@H]1c2ccccc2CC12CCN(c1nc3[nH]nc(C4(c5nc6ccccc6o5)CC4)c3c(=O)[nH]1)CC2` [Example 252, (S)-6-(1-amino-1,3-dihydrospiro[indene-2,4′-piperidin]-1′-yl)-3-(1-(benzo[d]oxazol-2-yl)cyclopropyl)-1,5-dihydro-4H-pyrazolo[3,4-d]pyrimidin-4-one], the 50% inhibitory concentration (IC50) was 20.9 µM in experiment [1] and ≤ 20 nM in experiment [2] (class symbols).

Take `N[C@@H]1c2ccccc2CC12CCN(c1nc3[nH]nc(C4(c5cccc(O)c5)CC4)c3c(=O)[nH]1)CC2` [Example 42, (S)-6-(1-amino-1,3-dihydrospiro[indene-2,4′-piperidin]-1′-yl)-3-(1-(3-hydroxyphenyl)cyclopropyl)-1,5-dihydro-4H-pyrazolo[3,4-d]pyrimidin-4-one]: the IC50 is > 30 µM in experiment [1] and 1.9 nM in experiment [2] (numeric values).

Regarding `N[C@@H]1c2ccccc2CC12CCN(c1nc3[nH]nc(C4=CCCc5nc(Cl)ccc54)c3c(=O)[nH]1)CC2` [Example 139, (S)-6-(1-amino-1,3-dihydrospiro[indene-2,4′-piperidin]-1′-yl)-3-(2-chloro-7,8-dihydroquinolin-5-yl)-1,5-dihydro-4H-pyrazolo[3,4-d]pyrimidin-4-one], the IC50 was found to be 2 nM in experiment [3] (numeric values), 2.8 nM in experiment [4] (numeric values) and 1.6 nM in experiment [2] (numeric values).

On to `N[C@@H]1c2ccccc2CC12CCN(c1nc3[nH]nc(C4=CCOc5cc(F)ccc54)c3c(=O)[nH]1)CC2` [Example 115, (S)-6-(1-amino-1,3-dihydrospiro[indene-2,4′-piperidin]-1′-yl)-3-(7-fluoro-2H-chromen-4-yl)-1,5-dihydro-4H-pyrazolo[3,4-d]pyrimidin-4-one], for which the 50% inhibitory concentration (IC50) is 1.2 nM in experiment [3] (numeric values), 1.4 nM in experiment [4] (numeric values) and ≤ 20 nM in experiment [2] (class symbols).

In the case of `COc1ccccc1C1(c2n[nH]c3nc(N4CCC5(CC4)Cc4ccccc4[C@H]5N)[nH]c(=O)c23)CC1` [Example 17, (S)-6-(1-amino-1,3-dihydrospiro[indene-2,4′-piperidin]-1′-yl)-3-(1-(2-methoxyphenyl)cyclopropyl)-1,5-dihydro-4H-pyrazolo[3,4-d]pyrimidin-4-one], the figures for the IC50 in experiment [3] (class symbols), in experiment [4] (class symbols) and in experiment [2] (class symbols) were 20 to 60 nM, 20 to 60 nM and ≤ 20 nM, respectively.

With `N[C@@H]1c2ccccc2CC12CCN(c1nc3[nH]nc(C4=CCOc5c(F)cccc54)c3c(=O)[nH]1)CC2` [Example 124], the IC50 was 1.6 nM in experiment [3] (numeric values), 1.7 nM in experiment [4] (numeric values) and 0.48 nM in experiment [2] (numeric values).

Turning to `N[C@@H]1c2ccccc2CC12CCN(c1nc3[nH]nc([C@H]4C[C@@H]4c4ccccc4)c3c(=O)[nH]1)CC2` [Example 185], the IC50 is 0.59 µM in experiment [1] and 0.48 nM in experiment [2] (numeric values).

For the molecule `CC(=O)c1cccc(C2(c3n[nH]c4nc(N5CCC6(CC5)Cc5ccccc5[C@H]6N)[nH]c(=O)c34)CC2)c1` [Example 223, (S)-3-(1-(3-acetylphenyl)cyclopropyl)-6-(1-amino-1,3-dihydrospiro[indene-2,4′-piperidin]-1′-yl)-1,5-dihydro-4H-pyrazolo[3,4-d]pyrimidin-4-one], the values for the IC50 in experiment [3] (numeric values), in experiment [4] (numeric values) and in experiment [2] (class symbols) were 11 nM, 2.8 nM and ≤ 20 nM, respectively.
